Reference: US10047051B2, “Substituted pyridines and method of use” (AbbVie S.á{acute over (.)}r.l., priority 2015, dated 2018)
Each block holds one compound with its values, some of them ahead of it.

Legend:
CFTR ΔF508 mutant = molecular target: T1, CFTR ΔF508 mutant (Homo sapiens, UniProt P13569, DEL508-508); test: YFP-halide influx assay for the CFTR-ΔF508 mutation (CFBE41o- cells); type: cell-based; settings: forskolin 10.67 μM; for EC50: from (1−F/F0) vs concentration plot
T1 construct: expressed in transfected cells; host or cells: CFBE41o- cells, adenoviral transduction
T1 sequence (P13569 with tags, fused parts or gaps DEL508-508): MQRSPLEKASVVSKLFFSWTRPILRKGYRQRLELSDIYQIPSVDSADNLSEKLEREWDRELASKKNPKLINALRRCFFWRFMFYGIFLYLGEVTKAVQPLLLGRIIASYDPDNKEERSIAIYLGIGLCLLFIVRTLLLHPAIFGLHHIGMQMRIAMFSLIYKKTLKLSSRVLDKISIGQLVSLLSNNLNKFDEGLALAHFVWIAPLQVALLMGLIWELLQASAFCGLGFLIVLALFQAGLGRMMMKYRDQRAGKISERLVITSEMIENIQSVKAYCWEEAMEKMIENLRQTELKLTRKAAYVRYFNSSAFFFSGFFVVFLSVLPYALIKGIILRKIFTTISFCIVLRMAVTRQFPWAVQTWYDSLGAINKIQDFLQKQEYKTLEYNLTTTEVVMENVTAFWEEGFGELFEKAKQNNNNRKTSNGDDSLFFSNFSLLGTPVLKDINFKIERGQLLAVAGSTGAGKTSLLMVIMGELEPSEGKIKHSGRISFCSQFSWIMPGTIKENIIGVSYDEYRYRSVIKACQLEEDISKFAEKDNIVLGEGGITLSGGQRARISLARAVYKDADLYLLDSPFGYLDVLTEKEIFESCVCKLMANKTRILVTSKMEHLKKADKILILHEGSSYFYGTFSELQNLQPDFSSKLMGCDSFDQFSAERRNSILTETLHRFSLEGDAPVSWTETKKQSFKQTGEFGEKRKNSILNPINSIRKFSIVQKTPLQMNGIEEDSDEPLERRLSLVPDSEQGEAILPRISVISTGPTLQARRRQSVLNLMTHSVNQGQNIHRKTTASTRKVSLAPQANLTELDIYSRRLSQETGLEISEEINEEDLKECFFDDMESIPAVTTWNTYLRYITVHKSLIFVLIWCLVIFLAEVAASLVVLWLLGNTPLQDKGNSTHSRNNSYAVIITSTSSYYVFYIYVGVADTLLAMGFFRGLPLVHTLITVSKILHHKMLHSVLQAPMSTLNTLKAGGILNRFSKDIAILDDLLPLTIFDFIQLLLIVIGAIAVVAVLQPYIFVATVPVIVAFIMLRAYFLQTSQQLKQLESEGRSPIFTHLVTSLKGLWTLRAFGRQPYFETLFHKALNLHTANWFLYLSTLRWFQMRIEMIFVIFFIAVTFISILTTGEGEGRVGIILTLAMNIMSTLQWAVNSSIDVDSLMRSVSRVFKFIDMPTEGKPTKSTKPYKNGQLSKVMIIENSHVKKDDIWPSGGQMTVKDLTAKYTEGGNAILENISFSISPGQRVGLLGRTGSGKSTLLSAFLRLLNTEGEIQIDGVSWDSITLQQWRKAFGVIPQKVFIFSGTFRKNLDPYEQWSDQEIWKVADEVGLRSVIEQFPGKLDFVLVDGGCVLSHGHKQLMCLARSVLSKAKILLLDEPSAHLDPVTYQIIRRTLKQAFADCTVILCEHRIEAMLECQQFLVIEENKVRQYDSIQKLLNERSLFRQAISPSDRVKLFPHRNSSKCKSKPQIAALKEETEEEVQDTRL
Summary of the method: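 CFBE41o- cells transduced with adenovirus expressing CFTR ΔF508 and halide-sensitive YFP H148Q/I152L/F47L, then held 24 h at 27° C or with a CFTR modulator 24 h at 37° C. Iodide-induced quench recorded 2 min; EC50 from (1−F/F0) at 36 s versus concentration.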

CFTR G551D mutant = molecular target: T2, CFTR G551D mutant (Homo sapiens, UniProt P13569, G551D); test: YFP-halide influx assay for the CFTR-G551D mutation (HEK293 cells); type: cell-based; settings: forskolin 10.67 μM
T2 construct: expressed in transfected cells; host or cells: HEK293 cells, reverse transfection with plasmids
T2 sequence (P13569 whole entry G551D): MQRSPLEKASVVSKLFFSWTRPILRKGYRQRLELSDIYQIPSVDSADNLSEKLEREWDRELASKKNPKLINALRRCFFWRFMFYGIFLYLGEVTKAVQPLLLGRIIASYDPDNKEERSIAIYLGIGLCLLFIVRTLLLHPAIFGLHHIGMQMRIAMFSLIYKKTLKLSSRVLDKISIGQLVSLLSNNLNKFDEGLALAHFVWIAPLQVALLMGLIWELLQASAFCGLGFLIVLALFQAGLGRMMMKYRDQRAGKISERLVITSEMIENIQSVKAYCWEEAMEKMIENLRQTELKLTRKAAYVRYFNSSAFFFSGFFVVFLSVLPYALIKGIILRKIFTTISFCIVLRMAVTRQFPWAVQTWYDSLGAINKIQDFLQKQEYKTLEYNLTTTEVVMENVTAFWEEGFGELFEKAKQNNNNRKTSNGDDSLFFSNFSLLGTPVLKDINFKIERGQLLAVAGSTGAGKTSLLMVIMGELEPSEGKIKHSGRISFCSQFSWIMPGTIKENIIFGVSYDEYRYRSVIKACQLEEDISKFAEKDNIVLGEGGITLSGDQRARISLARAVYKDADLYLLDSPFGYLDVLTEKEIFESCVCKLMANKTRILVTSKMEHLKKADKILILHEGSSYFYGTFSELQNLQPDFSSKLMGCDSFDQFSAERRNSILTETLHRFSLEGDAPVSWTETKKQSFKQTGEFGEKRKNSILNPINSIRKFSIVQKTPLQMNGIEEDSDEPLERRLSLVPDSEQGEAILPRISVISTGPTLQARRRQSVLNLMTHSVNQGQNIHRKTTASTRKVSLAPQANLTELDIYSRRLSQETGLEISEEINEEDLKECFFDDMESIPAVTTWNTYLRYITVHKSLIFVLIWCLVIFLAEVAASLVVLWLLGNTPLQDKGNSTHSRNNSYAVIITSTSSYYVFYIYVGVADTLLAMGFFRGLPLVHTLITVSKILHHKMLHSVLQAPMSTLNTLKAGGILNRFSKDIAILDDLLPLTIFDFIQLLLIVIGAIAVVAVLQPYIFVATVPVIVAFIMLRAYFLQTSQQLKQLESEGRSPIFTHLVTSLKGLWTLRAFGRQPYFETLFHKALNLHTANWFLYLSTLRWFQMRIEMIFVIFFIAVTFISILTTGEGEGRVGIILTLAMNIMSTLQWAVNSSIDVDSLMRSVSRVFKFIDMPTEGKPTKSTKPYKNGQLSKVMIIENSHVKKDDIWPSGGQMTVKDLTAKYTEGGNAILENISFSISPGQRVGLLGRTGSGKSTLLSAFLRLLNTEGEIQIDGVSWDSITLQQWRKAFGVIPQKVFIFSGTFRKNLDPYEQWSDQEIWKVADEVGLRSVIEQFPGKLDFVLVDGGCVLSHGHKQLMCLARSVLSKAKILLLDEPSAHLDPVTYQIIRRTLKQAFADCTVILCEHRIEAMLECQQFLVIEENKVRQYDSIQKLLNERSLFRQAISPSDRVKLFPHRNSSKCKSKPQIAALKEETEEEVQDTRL
Summary of the method: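 HEK293 cells reverse-transfected with CFTR G551D and halide-sensitive YFP (H148Q/I152L/F47L), expressed 24 h at 37 °C. YFP fluorescence quenching recorded for 7 s after I⁻ injection. Response = 1−F/F0; EC50 derived from 1−F/F0 vs compound concentration.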

SMILES: CC(C)OC[C@@H](O)CNC(=O)c1ncc(S(=O)(=O)c2ccc(C(F)(F)F)cc2)cc1N [Compound 243, 3-amino-N-[(2S)-2-hydroxy-3-(propan-2-yloxy)propyl]-5-{[4-(trifluoromethyl)phenyl]sulfonyl}pyridine-2-carboxamide]
% Activation (CFTR ΔF508 mutant): 111.5% | EC50 (CFTR ΔF508 mutant): 8.3 nM | % Activation (CFTR G551D mutant): 99.0% | EC50 (CFTR G551D mutant): 639 nM

SMILES: Nc1cc(S(=O)(=O)c2ccc(OC(F)(F)F)cc2F)cnc1C(=O)N1CC(O)(C(F)(F)F)C1 [Compound 173, (3-amino-5-{[2-fluoro-4-(trifluoromethoxy)phenyl]sulfonyl}pyridin-2-yl)[3-hydroxy-3-(trifluoromethyl)azetidin-1-yl]methanone]
% Activation (CFTR ΔF508 mutant): 98.3% | EC50 (CFTR ΔF508 mutant): 2.6 nM | % Activation (CFTR G551D mutant): 47.6% | EC50 (CFTR G551D mutant): 181 nM

SMILES: Nc1cc(S(=O)(=O)c2ccc(C(F)(F)F)cc2)cnc1C(=O)N[C@@H]1COCC[C@@H]1O [Compound 235, 3-amino-N-[(3R,4S)-4-hydroxytetrahydro-2H-pyran-3-yl]-5-{[4-(trifluoromethyl)phenyl]sulfonyl}pyridine-2-carboxamide]
% Activation (CFTR ΔF508 mutant): 58.5% | EC50 (CFTR ΔF508 mutant): > 667 nM | % Activation (CFTR G551D mutant): 14.4%

SMILES: Nc1cc(S(=O)(=O)c2ccc(OC(F)(F)F)cc2)cnc1C(=O)N1CCC1 [Compound 65, (3-amino-5-{[4-(trifluoromethoxy)phenyl]sulfonyl}pyridin-2-yl)(azetidin-1-yl)methanone]
% Activation (CFTR ΔF508 mutant): 119.0% | EC50 (CFTR ΔF508 mutant): 41.4 nM | % Activation (CFTR G551D mutant): 67.8% | EC50 (CFTR G551D mutant): 1160 nM

SMILES: Nc1cc(S(=O)(=O)c2ccc(OC(F)(F)F)cc2F)cnc1C(=O)NCC(O)COCC1CC1 (centres unmarked) [Compound 169, 3-amino-N-[3-(cyclopropylmethoxy)-2-hydroxypropyl]-5-{[2-fluoro-4-(trifluoromethoxy)phenyl]sulfonyl}pyridine-2-carboxamide]
% Activation (CFTR ΔF508 mutant): 95.5% | EC50 (CFTR ΔF508 mutant): 13.8 nM | % Activation (CFTR G551D mutant): 81.3% | EC50 (CFTR G551D mutant): 1120 nM

SMILES: Nc1cc(S(=O)(=O)c2ccc(OC(F)(F)F)cc2)cnc1C(=O)N1CC(N2CCOCC2)C1 [Compound 60, (3-amino-5-{[4-(trifluoromethoxy)phenyl]sulfonyl}pyridin-2-yl)[3-(morpholin-4-yl)azetidin-1-yl]methanone]
% Activation (CFTR ΔF508 mutant): 105.0% | EC50 (CFTR ΔF508 mutant): 67.2 nM | % Activation (CFTR G551D mutant): 71.1% | EC50 (CFTR G551D mutant): 3120 nM

SMILES: C[C@H](O)CNC(=O)c1ncc(S(=O)(=O)c2ccc(C(F)(F)F)cc2F)cc1N [Compound 98, 3-amino-5-{[2-fluoro-4-(trifluoromethyl)phenyl]sulfonyl}-N-[(2S)-2-hydroxypropyl]pyridine-2-carboxamide]
% Activation (CFTR ΔF508 mutant): 95.6% | EC50 (CFTR ΔF508 mutant): 7.4 nM | % Activation (CFTR G551D mutant): 60.2% | EC50 (CFTR G551D mutant): 685 nM

SMILES: Nc1cc(S(=O)(=O)c2ccc(OC(F)(F)F)cc2)cnc1C(=O)NCC1(O)CCOC1 (centres unmarked) [Compound 28, 3-amino-N-[(3-hydroxytetrahydrofuran-3-yl)methyl]-5-{[4-(trifluoromethoxy)phenyl]sulfonyl}pyridine-2-carboxamide]
% Activation (CFTR ΔF508 mutant): 97.2% | EC50 (CFTR ΔF508 mutant): 50.4 nM | % Activation (CFTR G551D mutant): 51.9% | EC50 (CFTR G551D mutant): 2330 nM

SMILES: CCS(=O)(=O)c1cc(N)c(C(=O)NC[C@H](C)O)nc1-c1ccc(F)cc1 [Compound 263, 3-amino-5-(ethylsulfonyl)-6-(4-fluorophenyl)-N-[(2S)-2-hydroxypropyl]pyridine-2-carboxamide]
% Activation (CFTR ΔF508 mutant): 97.2% | EC50 (CFTR ΔF508 mutant): 142 nM | % Activation (CFTR G551D mutant): 5.99% | EC50 (CFTR G551D mutant): 2000 nM

Results, then the compound that gave them:

% Activation (CFTR ΔF508 mutant): 93.3% | EC50 (CFTR ΔF508 mutant): 119 nM | % Activation (CFTR G551D mutant): 60.2% | EC50 (CFTR G551D mutant): 1130 nM
SMILES: Nc1cc(S(=O)(=O)c2ccc(OC(F)(F)F)cc2)cnc1C(=O)NCCC1CC1 [Compound 152, 3-amino-N-(2-cyclopropylethyl)-5-{[4-(trifluoromethoxy)phenyl]sulfonyl}pyridine-2-carboxamide]

% Activation (CFTR ΔF508 mutant): 60.5% | EC50 (CFTR ΔF508 mutant): > 667 nM | % Activation (CFTR G551D mutant): 39.1% | EC50 (CFTR G551D mutant): > 10000 nM
SMILES: Nc1cc(S(=O)(=O)c2ccc(OC(F)(F)F)cc2)cnc1C(=O)NC1(C(F)(F)F)COC1 [Compound 214, 3-amino-5-{[4-(trifluoromethoxy)phenyl]sulfonyl}-N-[3-(trifluoromethyl)oxetan-3-yl]pyridine-2-carboxamide]

% Activation (CFTR ΔF508 mutant): 90.6% | EC50 (CFTR ΔF508 mutant): 19.8 nM | % Activation (CFTR G551D mutant): 61.4% | EC50 (CFTR G551D mutant): 1330 nM
SMILES: C[C@H]1CCCN1S(=O)(=O)c1cnc(C(=O)NCC(O)C(F)(F)F)c(N)c1 (stereo partly drawn) [Compound 181, 3-amino-5-{[(2S)-2-methylpyrrolidin-1-yl]sulfonyl}-N-(3,3,3-trifluoro-2-hydroxypropyl)pyridine-2-carboxamide]

% Activation (CFTR ΔF508 mutant): 107.0% | EC50 (CFTR ΔF508 mutant): 7.8 nM | % Activation (CFTR G551D mutant): 75.2% | EC50 (CFTR G551D mutant): 756 nM
SMILES: Nc1cc(S(=O)(=O)N2CCC(OC(F)(F)F)CC2)cnc1C(=O)NCC(O)C(F)(F)F (centres unmarked) [Compound 198, 3-amino-N-(3,3,3-trifluoro-2-hydroxypropyl)-5-{[4-(trifluoromethoxy)piperidin-1-yl]sulfonyl}pyridine-2-carboxamide]

% Activation (CFTR ΔF508 mutant): 14.8% | EC50 (CFTR ΔF508 mutant): > 2000 nM | % Activation (CFTR G551D mutant): 1.7% | EC50 (CFTR G551D mutant): > 10000 nM
SMILES: CN1CCC(O)(CNC(=O)c2ncc(S(=O)(=O)c3ccc(OC(F)(F)F)cc3)cc2N)CC1 [Compound 5, 3-amino-N-[(4-hydroxy-1-methylpiperidin-4-yl)methyl]-5-{[4-(trifluoromethoxy)phenyl]sulfonyl}pyridine-2-carboxamide]

% Activation (CFTR ΔF508 mutant): 107.0% | EC50 (CFTR ΔF508 mutant): 1.3 nM | % Activation (CFTR G551D mutant): 72.5% | EC50 (CFTR G551D mutant): 160 nM
SMILES: Nc1cc(S(=O)(=O)c2ccc(C(F)(F)F)cc2)cnc1C(=O)NC[C@H](O)C(F)(F)F [Compound 64, 3-amino-N-[(2S)-3,3,3-trifluoro-2-hydroxypropyl]-5-{[4-(trifluoromethyl)phenyl]sulfonyl}pyridine-2-carboxamide]

% Activation (CFTR ΔF508 mutant): 101.0% | EC50 (CFTR ΔF508 mutant): 4 nM | % Activation (CFTR G551D mutant): 86.8% | EC50 (CFTR G551D mutant): 216 nM
SMILES: CC(C)OCC(O)CNC(=O)c1ncc(S(=O)(=O)c2ccc(OC(F)(F)F)cc2)cc1N (centres unmarked) [Compound 90, 3-amino-N-[2-hydroxy-3-(propan-2-yloxy)propyl]-5-{[4-(trifluoromethoxy)phenyl]sulfonyl}pyridine-2-carboxamide]

% Activation (CFTR ΔF508 mutant): 98.3% | EC50 (CFTR ΔF508 mutant): 41.7 nM | % Activation (CFTR G551D mutant): 71.5% | EC50 (CFTR G551D mutant): 1550 nM
SMILES: COCCC(C)(O)CNC(=O)c1ncc(S(=O)(=O)c2ccc(C(F)(F)F)cc2)cc1N (centres unmarked) [Compound 167, 3-amino-N-(2-hydroxy-4-methoxy-2-methylbutyl)-5-{[4-(trifluoromethyl)phenyl]sulfonyl}pyridine-2-carboxamide]

% Activation (CFTR ΔF508 mutant): 110.0% | EC50 (CFTR ΔF508 mutant): 16.3 nM | % Activation (CFTR G551D mutant): 93.3% | EC50 (CFTR G551D mutant): 919 nM
SMILES: Nc1cc(S(=O)(=O)c2ccc(OC(F)(F)F)cc2)cnc1C(=O)NC[C@@H](O)COCC1CC1 [Compound 251, 3-amino-N-[(2R)-3-(cyclopropylmethoxy)-2-hydroxypropyl]-5-{[4-(trifluoromethoxy)phenyl]sulfonyl}pyridine-2-carboxamide]

% Activation (CFTR ΔF508 mutant): 108.6% | EC50 (CFTR ΔF508 mutant): 6.6 nM | % Activation (CFTR G551D mutant): 82.5% | EC50 (CFTR G551D mutant): 251 nM
SMILES: CC(C)COCC(O)CNC(=O)c1ncc(S(=O)(=O)c2ccc(C(F)(F)F)cc2F)cc1N (centres unmarked) [Compound 170, 3-amino-5-{[2-fluoro-4-(trifluoromethyl)phenyl]sulfonyl}-N-[2-hydroxy-3-(2-methylpropoxy)propyl]pyridine-2-carboxamide]

% Activation (CFTR ΔF508 mutant): 101.5% | EC50 (CFTR ΔF508 mutant): 38.8 nM | % Activation (CFTR G551D mutant): 58.4% | EC50 (CFTR G551D mutant): 868 nM
SMILES: CC(C)OCCNC(=O)c1ncc(S(=O)(=O)c2ccc(C(F)(F)F)cc2)cc1N [Compound 192, 3-amino-N-[2-(propan-2-yloxy)ethyl]-5-{[4-(trifluoromethyl)phenyl]sulfonyl}pyridine-2-carboxamide]

% Activation (CFTR ΔF508 mutant): 111.5% | EC50 (CFTR ΔF508 mutant): 1 nM | % Activation (CFTR G551D mutant): 90.4% | EC50 (CFTR G551D mutant): 453 nM
SMILES: Nc1cc(S(=O)(=O)c2ccc(F)cc2)c(Br)nc1C(=O)NC[C@@H](O)C(F)(F)F [Compound 250, 3-amino-6-bromo-5-[(4-fluorophenyl)sulfonyl]-N-[(2R)-3,3,3-trifluoro-2-hydroxypropyl]pyridine-2-carboxamide]
